This is an account of results in PubChem BioAssay AID434934 (The Scripps Research Institute Molecular Screening Center, 2010).

Structures are written as SMILES. Where “and” joins values, the source holds several entries; their conditions need not be identical. Identical values can stand only once. Calls of active or inactive are those of the source.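 How the source made its calls: active means IC50 at or below 10 µM; inactive means IC50 above 10 µM.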

For the experiment, the system named is NIH 3T3 viability, CellTiter-Glo ATP luminescence. The experiment is described as follows: 3T3 cell viability loss – luminescence, dose response, cytotoxicity control for TPT1 inhibitor project, late-stage follow-up (AID 434934).
For `NC(=O)c1cc[n+](CC2=C(C(=O)O)N3C(=O)[C@@H](NC(=O)C(c4ccccc4)S(=O)(=O)O)[C@H]3SC2)cc1` (stereo not given in full), the IC50 was > 79.4 µM (inactive).

Regarding `Cc1cc(C)n(Cc2ccc(C(=O)NN=Cc3ccc(-c4ccc([N+](=O)[O-])cc4)o3)o2)n1`, the IC50 was > 79.4 µM (inactive).

`O=c1oc2c(O)c(O)cc3c(=O)oc4c(O)c(O)cc1c4c23`: the IC50 was > 26.5 µM (inactive).

For `Cc1[nH]n(-c2ccc(S(=O)(=O)O)cc2)c(=O)c1N[N-]c1ccc(C2=CC(=O)/C(=N\[N-]c3ccc4c(S(=O)(=O)O)cc(S(=O)(=O)O)c(N)c4c3O)C=C2)cc1O.[Cu+].[Cu+]`, the IC50 is 1.82 µM.

With `CC1=C(C#N)C(=O)N(C2CCS(=O)(=O)C2)C(=O)/C1=C\c1ccco1` (stereo not given), the IC50 was 20.4 µM (inactive).

For `NS(=O)(=O)c1cc(C(=O)NC2CCSc3ccccc32)ccc1Cl` (stereo not given), the IC50 was > 79.4 µM (inactive).

Turning to `COc1ccc(OC)c(N2C(=O)/C(=C/c3ccco3)C(=O)NC2=S)c1`, the IC50 was 73.9 µM (inactive).

Turning to `Cc1ccc(N2C(=O)NC(=O)/C(=C\c3ccc([N+](=O)[O-])o3)C2=O)cc1`, the IC50 was 23.2 µM (inactive).

Turning to `OC(Cn1cncn1)(Cn1cncn1)c1ccc(F)cc1F`, the IC50 is > 26.5 µM (inactive).

For the compound `Cc1ccccc1N1C(=O)/C(=C/c2ccco2)C(=O)NC1=S`, the IC50 was 46.1 µM (inactive) and 34.3 µM (inactive).
